# Where two headings read alike, the source gives them in different places.
# Assays:
# [1] = target: T1, E. coli leucyl-tRNA synthetase (LeuRS) (Escherichia coli, UniProt P07813); assay: incorporation of Nal into mDHFR at Leu codon UUG, effect of LeuRS inhibitor; format: cell-based
# T1 construct: endogenous in cells; host or cells: E. coli expression strain (Phe/Leu auxotroph) carrying ytRNAPheCAA and modified yeast PheRS
# From the text: In this example, multiple-site-specific incorporation of an unnatural amino acid into murine dihydrofolate reductase (mDHFR) in response to a sense codon was realized by use of an E. coli strain outfitted with a yeast transfer RNA (ytRNA^pheCAA) capable of Watson-Crick base-pairing with the leucine (Leu) codon UUG. ytRNA^pheCAA was charged with L-3-(2-naphthyl)alanine (Nal) by a co-expressed modified yeast phenylalanine tRNA synthetase. See schematic diagram in FIG. 3.
# Incomplete occupancy of the UUG codon by Nal is due at least in part to competition with leucine-charged E. coli tRNA^Leus. In an attempt to reduce competition by E. coli tRNA^Leus, use of a mutant E. coli strain lacking tRNA^LeuCAA and addition of an E. coli leucyl-tRNA synthetase (LeuRS) inhibitor were tested. A Phe/Leu double auxotrophic strain derived from the tRNA^LeuCAA-deficient strain XA106 (CGSC at Yale) was tested for incorporation of Nal at the UUG codon.
# Replacement of Leu by Nal was detected in MALDI mass spectra of tryptic fragments of mDHFR (FIG. 4). […] Furthermore, Nal incorporation was not detected when UUG was mutated to UUA in Peptide 3. No signal corresponding to Peptide 4CUG (Nal) was detected, whereas that corresponding to Peptide 4CUG was detected at 904.54 mass units. […]
# [2] = target: T1, E. coli leucyl-tRNA synthetase (LeuRS); conditions: in vitro; cited from earlier work
# [3] = target: T2, mu-yPheRS (modified yeast PheRS, Thr415Gly) (Saccharomyces cerevisiae, UniProt P15625, T415G); assay: adenosine triphosphate-pyrophosphate exchange assay (amino acid activation); format: biochemical; conditions: larger than Phe
# T2 construct: made in house
# T2 sequence (P15624 whole entry): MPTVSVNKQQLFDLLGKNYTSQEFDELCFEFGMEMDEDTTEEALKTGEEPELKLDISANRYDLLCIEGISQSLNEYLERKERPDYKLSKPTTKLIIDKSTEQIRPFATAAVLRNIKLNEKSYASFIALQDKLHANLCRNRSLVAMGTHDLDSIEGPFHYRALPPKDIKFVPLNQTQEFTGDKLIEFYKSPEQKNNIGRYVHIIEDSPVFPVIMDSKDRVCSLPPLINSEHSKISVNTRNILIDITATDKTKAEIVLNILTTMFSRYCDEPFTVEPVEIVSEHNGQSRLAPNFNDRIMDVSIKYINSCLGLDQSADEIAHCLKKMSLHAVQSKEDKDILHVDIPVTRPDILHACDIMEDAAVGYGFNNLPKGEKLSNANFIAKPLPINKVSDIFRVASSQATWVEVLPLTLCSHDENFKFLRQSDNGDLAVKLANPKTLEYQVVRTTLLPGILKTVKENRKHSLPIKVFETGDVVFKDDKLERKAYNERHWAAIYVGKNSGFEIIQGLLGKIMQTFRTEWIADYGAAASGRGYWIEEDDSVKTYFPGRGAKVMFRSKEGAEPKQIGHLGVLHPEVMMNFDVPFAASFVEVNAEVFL
# T2 sequence (P15625 whole entry T415G): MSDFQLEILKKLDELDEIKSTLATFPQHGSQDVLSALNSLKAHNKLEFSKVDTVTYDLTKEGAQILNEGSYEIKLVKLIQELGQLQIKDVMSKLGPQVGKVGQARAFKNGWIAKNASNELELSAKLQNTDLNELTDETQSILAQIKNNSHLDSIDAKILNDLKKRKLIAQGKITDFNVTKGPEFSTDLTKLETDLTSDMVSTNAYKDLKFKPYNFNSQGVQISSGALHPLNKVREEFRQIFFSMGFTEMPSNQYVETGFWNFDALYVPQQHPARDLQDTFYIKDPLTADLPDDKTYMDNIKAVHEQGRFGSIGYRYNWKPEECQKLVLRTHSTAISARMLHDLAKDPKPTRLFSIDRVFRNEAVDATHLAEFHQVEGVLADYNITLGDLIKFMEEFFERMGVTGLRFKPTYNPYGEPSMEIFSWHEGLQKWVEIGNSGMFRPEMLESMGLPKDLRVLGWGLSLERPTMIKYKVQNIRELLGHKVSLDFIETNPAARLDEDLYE
# Method: The modified yeast PheRS (mu-yPheRS) was prepared by introduction of a Thr415Gly mutation in the α-subunit of the synthetase (Datta el al., J. Am. Chem. Soc. 124: 5652, 2002). The kinetics of activation of Nal and Phe by mu-yPheRS were analyzed in vitro via the adenosine triphosphate-pyrophosphate exchange assay.
# [4] = tested on: E. coli strain (K10-F6); assay: incorporation of Nal into mDHFR at Phe codons UUU/UUC (amino acid analysis, MALDI of tryptic digests); format: cell-based
# Method: In this construct, four of the Phe residues of mDHFR are encoded by UUC codons, five by UUU. A full-length copy of the mu-yPheRS gene, under control of a constitutive tac promoter, was inserted into pQE16. […] E. coli transformants harboring these two plasmids were incubated in Phe-depleted minimal medium supplemented with 3 mM Nal and were then treated with 1 mM IPTG to induce expression of mDHFR. Although the E. coli strain (K10-F6) used in this study is a Phe auxotroph, (see Furter, supra) a detectable level of mDHFR was expressed even under conditions of nominal depletion of Phe, probably because of release of Phe through turnover of cellular proteins. In negative control experiments, mDHFR was expressed in the absence of either ytRNA^PheAAA or mu-yPheRS. […] For mDHFR isolated from the strain harboring the heterologous pair, amino acid analysis indicated replacement of 4.4 of the 9 Phe residues by Nal.
# Tryptic digests of mDHFR were analyzed to determine the occupancy of individual Phe sites. Peptide 1UUU (residues 184-191, […], SEQ ID NO: 1) contains a Phe residue encoded as UUU, whereas peptides 2UUC (residues 62-70, […], SEQ ID NO: 2) and 3UUC (residues 26-39, […], SEQ ID NO: 3) each contain a Phe residue encoded as UUC. In the absence of Nal, peptide 1UUU was detected with a monoisotopic mass of 1105.55 Da, in accord with its theoretical mass (FIG. 2A). […] As described earlier, each substitution of Nal for Phe leads to a mass increase of 50.06 Da; the observed shift in mass is thus consistent with replacement of Phe by Nal in response to the UUU codon. Liquid chromatography-tandem mass spectrometry (LC/MS/MS) confirmed this assignment.
# Similar analyses were conducted for peptides 2UUC and 3UUC. In the absence of added Nal, the observed masses of peptides 2UUC and 3UUC are 1135.61 (FIG. 2A) and 1682.89 Da (FIG. 2D), respectively, as expected. […] Nal incorporation thus appears to be rare at UUC codons under the conditions used here for protein expression.
# There is at least a formal possibility that the observed codon-biased incorporation of Nal might be dependent on codon context rather than, or in addition to, codon identity. MALDI sampling errors are also possible. To test these possibilities, a mutant mDHFR gene was prepared by mutating the UUU codon in peptide 1UUU to UUC, and the UUC codon in peptide 3UUC to UUU. In the resulting peptide 1UUC, the signal indicating incorporation of Nal was only slightly above background (FIG. 2C), whereas for peptide 3UUU, Nal is readily detected (FIG. 2F). Nal incorporation is unambiguously codon-biased to UUU.
# [5] = tested on: Escherichia coli; conditions: cited from earlier work
# [6] = modified using conventional amine-PEGylation; cited from earlier work
# [7] = cited from earlier work
# [8] = degree similar to Ceredase; cited from earlier work
# T1 sequence (P07813 whole entry): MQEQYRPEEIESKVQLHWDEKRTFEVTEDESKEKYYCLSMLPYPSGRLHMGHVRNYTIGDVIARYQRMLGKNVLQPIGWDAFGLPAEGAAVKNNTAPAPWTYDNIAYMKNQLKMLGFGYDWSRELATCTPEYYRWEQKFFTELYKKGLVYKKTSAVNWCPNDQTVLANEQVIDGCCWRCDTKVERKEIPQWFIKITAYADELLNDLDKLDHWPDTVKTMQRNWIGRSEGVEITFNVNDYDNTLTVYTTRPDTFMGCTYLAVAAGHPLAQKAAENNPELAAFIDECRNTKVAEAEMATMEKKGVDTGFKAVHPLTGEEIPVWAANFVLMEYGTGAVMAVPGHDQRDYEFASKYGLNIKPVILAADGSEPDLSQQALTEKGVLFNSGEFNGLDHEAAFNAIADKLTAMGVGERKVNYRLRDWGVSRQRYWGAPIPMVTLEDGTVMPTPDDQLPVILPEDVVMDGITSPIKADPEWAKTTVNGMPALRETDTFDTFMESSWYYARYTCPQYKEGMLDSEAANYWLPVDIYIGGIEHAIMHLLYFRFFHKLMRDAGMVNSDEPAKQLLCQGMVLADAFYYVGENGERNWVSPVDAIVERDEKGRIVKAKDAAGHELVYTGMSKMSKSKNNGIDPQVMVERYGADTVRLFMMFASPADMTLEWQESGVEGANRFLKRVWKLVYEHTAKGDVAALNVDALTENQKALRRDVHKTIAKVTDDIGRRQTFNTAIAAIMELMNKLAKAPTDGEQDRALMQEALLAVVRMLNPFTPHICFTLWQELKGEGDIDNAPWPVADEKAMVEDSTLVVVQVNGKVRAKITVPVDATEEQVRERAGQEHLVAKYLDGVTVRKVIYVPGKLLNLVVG
molecule,measurement,setting,value
"CN(C)CC(N)C(=O)O (racemic) [AZL, 4-Aza-DL-leucine]",effect on occupancy of the UUG codon by Nal,[1]; 1 mM AZL in the media,enhanced occupancy
same,inhibition of E. coli LeuRS,[2],competitive inhibitor
"N[C@@H](Cc1ccc2ccccc2c1)C(=O)O [Nal, L-3-(2-naphthyl)alanine]",specificity constant relative to that for Phe,[3],8 fold
same,Nal incorporation at the UUU codon,"[4]; MALDI signal intensities, peptide 1UUU",dominant
same,Nal incorporation at UUC codons,"[4]; MALDI, peptides 2UUC and 3UUC",rare
same,Phe residues of mDHFR replaced by Nal,"[4]; of the 9 Phe residues, strain harboring ytRNA^PheAAA and mu-yPheRS, 3 mM Nal, amino acid analysis",4.4
same,incorporation of Nal into mDHFR,"[4]; without ytRNA^PheAAA or mu-yPheRS, amino acid analysis",no incorporation
same,re-assignment of the UUG codon to Nal,"[1]; ytRNA^PheCAA and modified yeast PheRS, mass spectrometry of tryptic digests",partially re-assigned
CC1(C)S[C@@H]2[C@H](NC(=O)[C@H](N)c3ccccc3)C(=O)N2[C@H]1C(=O)O [ampicillin],IC50 of cells,[5]; SctRNAGlnCUA coexpressed with ScGlnRS,about 500 μg/mL
same,IC50 of cells,[5]; only SctRNAGlnCUA expressed,20 µg/mL
"GCSF: GCSF modified using conventional amine-PEGylation technologies (conjugate, UniProt P09919 31-207, looked up, amine PEGylation, GCSF modified using conventional amine-PEGylation technologies) Granulocyte …: TPLGPASSLPQSFLLKCLEQVRKIQGDGAALQEKLVSECATYKLCHPEELVLLGHSLGIPWAPLSSCPSQALQLAGCLSQLHSGLFLYQGLLQALEGISPELGPTLDTLQLDVADFATTIWQQMEELGMAPALQPTQGAMPAFASAFQRRAGGVLVASHLQSFLEVSYRVLRHLAQP",reduction of bioactivity,[6],"1,000 fold"
"Cerezyme: recombinant analogue of the human enzyme β-Glucocerebrosidase, imiglucerase for injection (protein, UniProt P04062 40-536, looked up, variant R495H, imiglucerase, recombinant analogue of the human enzyme β-Glucocerebrosidase, imiglucerase for injection) Lysosomal acid …: ARPCIPKSFGYSSVVCVCNATYCDSFDPPTFPALGTFSRYESTRSGRRMELSMGPIQANHTGTGLLLTLQPEQKFQKVKGFGGAMTDAAALNILALSPPAQNLLLKSYFSEEGIGYNIIRVPMASCDFSIRTYTYADTPDDFQLHNFSLPEEDTKLKIPLIHRALQLAQRPVSLLASPWTSPTWLKTNGAVNGKGSLKGQPGDIYHQTWARYFVKFLDAYAEHKLQFWAVTAENEPSAGLLSGYPFQCLGFTPEHQRDFIARDLGPTLANSTHHNVRLLMLDDQRLLLPHWAKVVLTDPEAAKYVHGIAVHWYLDFLAPAKATLGETHRLFPNTMLFASEACVGSKFWEQSVRLGSWDRGMQYSHSIITNLLYHVVGWTDWNLALNPEGGPNWVRNFVDSPIIVDITKDTFYKQPMFYHLGHFSKFIPEGSQRVGLVASQKNDLDAVALMHPDGSAVVVVLNRSSKDVPLTIKDPAVGFLETISPGYSIHTYLWHRQ",time to steady-state enzymatic activity,[7]; during one-hour intravenous infusions,≤ 30 min
same,"plasma clearance, mean±S.D.",[7]; in vivo,14.5 ± 4.0 mL/min/kg
same,"volume of distribution corrected for weight, mean±S.D.",[7]; in vivo,0.12 ± 0.02 L/kg
same,clinical effect,[8],"improved anemia and thrombocytopenia, reduced spleen and liver size, and decreased cachexia"

# — patent US9133457B2, “Methods of incorporating amino acid analogs into proteins” (California Institute of Technology, priority 2004, dated 2015)
